Here are results for 20 molecules from patent US20220071971A1, “MACROCYCLIC COMPOUNDS AND THEIR USE IN THE TREATMENT OF DISEASE” (NOVARTIS AG, priority 2018, published 2022).

What is called pEC50 is −log10 of the EC50, conventionally taken in molar units.

pEC50: −log10 of the molar value.

The target of this test is T1, delF508-CFTR (Homo sapiens, UniProt P13569, DEL508-508).
T1 construct: expressed in transfected cells
Description: Measurement of delF508-CFTR-HRP surface expression in CFBE41o- cells. The format is cell-based. As to conditions: for pEC50: HRP-tagged delF508-CFTR surface expression, CFBE41o- cells, 24 h with compound, 10-point curve, highest concentration 10 μM; for Emax: CFBE41o-, read-out: DelF508-CFTR-HRP Amax %. The source says: Measurement of deIF508-CFTR-HRP Surface Expression in CFBE41o-Cells
This assay quantifies the cell surface expressions of the mutant CFTR channel using an extracellular HRP tag.
A cellular assay was developed to measure surface expression of horseradish peroxidase (HRP) tagged delF508-CFTR in the human bronchial epithelial immortalized CFBE41o-cell line (Phuan, P. W., et al, (2014) Molecular Pharmacology 86:42-51). Specifically, the HRP sequence was inserted into the fourth extracellular loop of delF508-CFTR and stably expressed in CFBE41o-cells. Cells were seeded in 384 well plate at a density of 5000 cells/well and incubated at 37° C. for 12 to 24 hours in medium (Gibco MEM #11095, 10% FBS, 10 mM HEPES, […], 200 μg/mL G418, 3 μg/mL Puromycin). The delF508-CFTR-HRP expression was induced with 500 ng/mL doxycycline (Sigma D-9891, dissolved in H2O and sterile filtered) in medium and the cells were incubated at 37° C. for 48 h. Old medium was removed and fresh medium was added containing 500 ng/mL doxycycline and unknown test compound at required test concentration in DMSO, not exceeding 0.5% final DMSO concentration. The highest concentration tested was 10 μM with a 10-point concentration response curve using a 3-fold dilution. After addition of compounds, the cells were incubated for 24 h at 37° C. On the final day, cells were washed four times in PBS containing 1 mM MgCl2 and 0.1 mM CaCl2. HRP-Substrate (SuperSignal ELISA Pico, Fisher #37069) 20 μl/well was added and the luminescence signal was determined (Viewlux, Perkin Elmer). Light was emitted upon addition of exogenous HRP-Substrate only when delF508-CFTR-HRP reached the cell surface and the HRP tag was accessible to the HRP-Substrate (note: HRP-Substrate cannot cross the lipid bilayer to reach delF508-CFTR-HRP misfolded within the cell).
The median activity for the lowest concentration of the compounds on each assay plate was calculated and this value was used to normalize the signal for each well on the respective plate. Three replicates at each concentrations for every compound were run to determine one EC50. The median value was determined and used to calculate compound activities as described below. Effective half maximal values (EC50) were calculated for each compound by performing logistic regression on measured dose-response data points using the equation: […]
where “Y” is the observed activity, “Bottom” is the lowest observed value, “Top” is the highest observed value, and the “Hill coefficient” gives the largest absolute value of the slope. The curve fitting is carried out by a curve fitting program implemented at GNF using Matlab (Mathworks).
The dose response curves also were used to calculate Fold Change (FC) using the equation: […]
Compound efficacy relative to the reference compound 3-(6-(1-(2,2-difluorobenzo[d][1,3]dioxol-5-yl)cyclopropane-1-carboxamido)-3-methylpyridin-2-yl)benzoic acid was determined using the following formula: […]

Setting [1] is: efficacy relative to reference compound 3-(6-(1-(2,2-difluorobenzo[d][1,3]dioxol-5-yl)cyclopropane-1-carboxamido)-3-methylpyridin-2-yl)benzoic acid.

T1 sequence (P13569 with tags, fused parts or gaps DEL508-508): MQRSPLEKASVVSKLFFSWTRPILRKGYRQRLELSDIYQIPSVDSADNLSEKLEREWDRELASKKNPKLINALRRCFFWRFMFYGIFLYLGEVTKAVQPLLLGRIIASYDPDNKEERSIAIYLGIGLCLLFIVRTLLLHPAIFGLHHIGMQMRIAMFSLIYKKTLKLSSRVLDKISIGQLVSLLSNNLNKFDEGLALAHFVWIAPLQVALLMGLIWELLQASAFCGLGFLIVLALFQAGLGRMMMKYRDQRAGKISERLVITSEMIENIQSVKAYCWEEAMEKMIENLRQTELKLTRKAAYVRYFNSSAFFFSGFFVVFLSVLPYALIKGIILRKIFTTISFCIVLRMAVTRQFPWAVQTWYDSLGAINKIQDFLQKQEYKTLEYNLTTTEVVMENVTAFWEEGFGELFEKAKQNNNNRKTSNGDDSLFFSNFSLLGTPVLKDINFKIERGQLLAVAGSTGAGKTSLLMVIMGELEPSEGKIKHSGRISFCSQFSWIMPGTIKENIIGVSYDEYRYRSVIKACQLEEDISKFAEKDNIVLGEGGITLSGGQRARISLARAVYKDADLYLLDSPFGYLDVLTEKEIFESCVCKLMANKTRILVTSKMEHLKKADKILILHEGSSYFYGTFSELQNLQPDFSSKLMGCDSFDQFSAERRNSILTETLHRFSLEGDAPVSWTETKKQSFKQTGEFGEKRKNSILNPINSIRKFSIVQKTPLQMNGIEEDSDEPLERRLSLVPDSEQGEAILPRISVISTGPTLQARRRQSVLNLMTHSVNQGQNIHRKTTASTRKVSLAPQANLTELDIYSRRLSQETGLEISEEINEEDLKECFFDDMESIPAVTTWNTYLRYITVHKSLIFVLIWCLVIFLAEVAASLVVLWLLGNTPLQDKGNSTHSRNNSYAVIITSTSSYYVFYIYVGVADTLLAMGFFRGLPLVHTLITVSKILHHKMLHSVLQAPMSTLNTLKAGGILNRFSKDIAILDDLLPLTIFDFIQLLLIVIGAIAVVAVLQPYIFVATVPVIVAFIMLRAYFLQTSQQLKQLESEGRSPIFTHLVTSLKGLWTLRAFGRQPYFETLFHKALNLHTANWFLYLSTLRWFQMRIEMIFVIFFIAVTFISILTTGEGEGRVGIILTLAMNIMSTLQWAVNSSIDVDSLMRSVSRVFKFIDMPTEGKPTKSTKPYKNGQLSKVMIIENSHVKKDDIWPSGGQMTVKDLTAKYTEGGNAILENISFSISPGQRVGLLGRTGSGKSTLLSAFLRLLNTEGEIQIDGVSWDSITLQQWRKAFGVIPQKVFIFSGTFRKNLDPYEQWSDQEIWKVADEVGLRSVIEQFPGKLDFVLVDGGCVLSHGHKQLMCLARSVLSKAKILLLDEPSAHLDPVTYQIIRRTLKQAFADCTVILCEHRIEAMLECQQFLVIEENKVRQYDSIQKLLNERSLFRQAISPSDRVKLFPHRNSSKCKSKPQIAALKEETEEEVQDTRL

Turning to `O=C(O)CCCCN1CCCCCc2ccccc2-c2nc(ccc2C(F)(F)F)NS(=O)(=O)c2cccc1n2` [Compound 77, 5-(4,4-dioxido-2^3-(trifluoromethyl)-4-thia-3,6-diaza-2,5(2,6)-dipyridina-1(1,2)-benzenacycloundecaphane-6-yl)pentanoic acid], the pEC50 is 6.31. For the molecule `NCCN1CCCCCc2ccccc2-c2nc(ccc2C(F)(F)F)NS(=O)(=O)c2cccc1n2` [Compound 132, 6-(2-aminoethyl)-2^3-(trifluoromethyl)-4-thia-3,6-diaza-2,5(2,6)-dipyridina-1(1,2)-benzenacycloundecaphane 4,4-dioxide], the pEC50 was 5.57. Further, the Emax under setting [1] was 259%.

For `O=S1(=O)Nc2ccc(C(F)(F)F)c(n2)-c2cccnc2NCCCCCCNc2cccc1n2` [Compound 7, 2^3-(trifluoromethyl)-4-thia-3,6,13-triaza-1(3,2),2,5(2,6)-tripyridinacyclotridecaphane 4,4-dioxide], the pEC50 was 6.01. Also, under setting [1], the Emax is 386%. As for `O=S1(=O)Nc2ccc(C(F)(F)F)c(n2)-c2ccccc2CCCCCN(CCCCCO)c2cccc1n2` [Compound 15, 6-(5-hydroxypentyl)-2^3-(trifluoromethyl)-4-thia-3,6-diaza-2,5(2,6)-dipyridina-1(1,2)-benzenacycloundecaphane 4,4-dioxide], the pEC50 is 6.52. Moreover, the Emax under setting [1] amounted to 708%. On the same counts, the results for `Cc1ccc2nc1-c1ccccc1CCCCCN(CCCCO)c1cccc(n1)S(=O)(=O)N2` [Compound 19, 6-(4-hydroxybutyl)-2^3-methyl-4-thia-3,6-diaza-2,5(2,6)-dipyridina-1(1,2)-benzenacycloundecaphane 4,4-dioxide] are 5.79 and 490%. `COc1ccc2nc1-c1ccccc1CCCCCN(CCCC(=O)O)c1cccc(n1)S(=O)(=O)N2` [Compound 83, 4-(2^3-methoxy-4,4-dioxido-4-thia-3,6-diaza-2,5(2,6)-dipyridina-1(1,2)-benzenacycloundecaphane-6-yl)butanoic acid]: the pEC50 was 5.61. Moreover, the “DelF508-CFTR-HRP Amax %” value under setting [1] was 163.8%. With `O=S1(=O)Nc2ccc(Cl)c(n2)-c2cccnc2OCCCCCNc2cccc1n2` [Compound 107, 2^3-chloro-12-oxa-4-thia-3,6-diaza-1(3,2),2,5(2,6)-tripyridinacyclododecaphane 4,4-dioxide], the pEC50 was 5.90. In addition, the Emax under setting [1] came to 169%. Regarding `O=S1(=O)Nc2ccc(C(F)(F)F)c(n2)-c2ccccc2CCCCN(CCCO)c2cccc1n2` [Compound 20, 6-(3-hydroxypropyl)-2^3-(trifluoromethyl)-4-thia-3,6-diaza-2,5(2,6)-dipyridina-1(1,2)-benzenacyclodecaphane 4,4-dioxide], the pEC50 is 6.44. For the same molecule, the Emax under setting [1] is 337%.

Turning to `O=S1(=O)Nc2ccc(Cl)c(n2)-c2ccccc2CCCCCN(CCCO)c2cccc1n2` [Compound 24, 2^3-chloro-6-(3-hydroxypropyl)-4-thia-3,6-diaza-2,5(2,6)-dipyridina-1(1,2)-benzenacycloundecaphane 4,4-dioxide], the pEC50 was 6.78. Besides, the Emax under setting [1] amounted to 448%.

`O=S1(=O)Nc2ccc(C(F)(F)F)c(n2)-c2ccccc2CCCCC(CCCO)Oc2cccc1n2` (stereo not shown) [Compound 109, 7-(3-hydroxypropyl)-2^3-(trifluoromethyl)-6-oxa-4-thia-3-aza-2,5(2,6)-dipyridina-1(1,2)-benzenacycloundecaphane 4,4-dioxide]: the pEC50 is 6.41. Besides, the Emax under setting [1] was 186%. On the same counts, the results for `O=C(O)COCCN1CCCCCc2ccccc2-c2nc(ccc2C(F)(F)F)NS(=O)(=O)c2cccc1n2` [Compound 74, 2-(2-(4,4-dioxido-2^3-(trifluoromethyl)-4-thia-3,6-diaza-2,5(2,6)-dipyridina-1(1,2)-benzenacycloundecaphane-6-yl)ethoxy)acetic acid] are 5.70 and 745%. Take `O=C(O)CCCN1CCCCCc2ccccc2-c2nc(ccc2Cl)NS(=O)(=O)c2cccc1n2` [Compound 79, 4-(2^3-chloro-4,4-dioxido-4-thia-3,6-diaza-2,5(2,6)-dipyridina-1(1,2)-benzenacycloundecaphane-6-yl)butanoic acid]: the pEC50 was 5.80.

As to `O=S1(=O)Nc2ccc(C(F)(F)F)c(n2)-c2ccccc2CCCCCCCCCN(CCCCO)c2cccc1n2` [Compound 42, 6-(4-hydroxybutyl)-2^3-(trifluoromethyl)-4-thia-3,6-diaza-2,5(2,6)-dipyridina-1(1,2)-benzenacyclopentadecaphane 4,4-dioxide], the pEC50 was 6.66.

With `COc1ccc2nc1-c1ccccc1CCCCCN(CCCCO)c1cccc(n1)S(=O)(=O)N2` [Compound 17, 6-(4-hydroxybutyl)-2^3-methoxy-4-thia-3,6-diaza-2,5(2,6)-dipyridina-1(1,2)-benzenacycloundecaphane 4,4-dioxide], the pEC50 was 5.63. For the same molecule, the Emax under setting [1] is 347%. On the same counts, the results for `CC1(C)OCC(CN2CCCCCc3ccccc3-c3nc(ccc3C(F)(F)F)NS(=O)(=O)c3cccc2n3)O1` (stereo not shown) [Compound 37, 6-((2,2-dimethyl-1,3-dioxolan-4-yl)methyl)-2^3-(trifluoromethyl)-4-thia-3,6-diaza-2,5(2,6)-dipyridina-1(1,2)-benzenacycloundecaphane 4,4-dioxide] are 6.41 and 651%.

In the case of `O=C(O)C1(CN2CCOCCCc3ccccc3-c3nc(ccc3C(F)(F)F)NS(=O)(=O)c3cccc2n3)CC1` [Compound 95, 1-((4,4-dioxido-2^3-(trifluoromethyl)-9-oxa-4-thia-3,6-diaza-2,5(2,6)-dipyridina-1(1,2)-benzenacyclododecaphane-6-yl)methyl)cyclopropane-1-carboxylic acid], the pEC50 was 5.88. Same read-out and setting: then `O=C(O)CCCCN1CCCCc2ccccc2-c2nc(ccc2C(F)(F)F)NS(=O)(=O)c2cccc1n2` [Compound 80, 5-(4,4-dioxido-2^3-(trifluoromethyl)-4-thia-3,6-diaza-2,5(2,6)-dipyridina-1(1,2)-benzenacyclodecaphane-6-yl)pentanoic acid], with 5.85. On to `O=S1(=O)Nc2ccc(C(F)(F)F)c(n2)-c2ccccc2CCCCCN(CC(O)CO)c2cccc1n2` (stereo not shown) [Compound 128, 6-(2,3-dihydroxypropyl)-2^3-(trifluoromethyl)-4-thia-3,6-diaza-2,5(2,6)-dipyridina-1(1,2)-benzenacycloundecaphane 4,4-dioxide], for which the pEC50 was 6.56. Moreover, the Emax under setting [1] was 435%. On the same counts, the results for `O=S1(=O)Nc2ccc(C(F)(F)F)c(n2)-c2ccccc2CCCCCN(CCN2CCCC2)c2cccc1n2` [Compound 122, 6-(2-(pyrrolidin-1-yl)ethyl)-2^3-(trifluoromethyl)-4-thia-3,6-diaza-2,5(2,6)-dipyridina-1(1,2)-benzenacycloundecaphane 4,4-dioxide] are 5.92 and 226%. With `O=C(O)CCCN1CCCCCc2ccc(F)cc2-c2nc(ccc2C(F)(F)F)NS(=O)(=O)c2cccc1n2` [Compound 86, 4-(1^5-fluoro-4,4-dioxido-2^3-(trifluoromethyl)-4-thia-3,6-diaza-2,5(2,6)-dipyridina-1(1,2)-benzenacycloundecaphane-6-yl)butanoic acid], the pEC50 is 6.53.
